According to patent US8383624B2 (Abbott Laboratories, priority 2009, dated 2013):

Molecular target: T1, Cdc7 (BEV coexpressed huCDC7/DBF4) (Homo sapiens, UniProt O00311)
T1 construct: made in house; host or cells: baculovirus expression vector (BEV) system
Assay: Cdc7 enzyme inhibition assay ([33P]-ATP, biotinylated peptide substrate, FlashPlate)
Assay type: biochemical
Details: Table 2; same assay as example 26
Method: Cdc7 (BEV coexpressed huCDC7/DBF4) is prepared internally. Cdc7 assays are conducted as follows with final concentrations as listed. In 384-well v-bottom polypropylene plates, 6 L compound (2% DMSO), is mixed with 6 µL of Cdc7 (2 μg/mL), and Jerini peptide substrate A-All (biotin-C6linker-TPSDSLIYDDGLS) (2 μM), followed by immediate initiation with 6 L […] (1 μM, 20 mCi/μmol) using a reaction buffer comprising 25 mM HEPES, pH 7.5, 1 mM DTT, 10 mM MgCl2, 100 μM Na3VO4, 0.075 mg/ml Triton X-100. Reactions are quenched after 1 hr by the addition of 90 L stop buffer (50 mM EDTA, 2M NaCl). 85 μL of the stopped reactions are transferred to 384-well streptavidin-coated plates (FlashPlate Plus, Perkin Elmer), incubated 30 minutes at room temperature and washed 3 times with 0.05% Tween-20/PBS using an ELX-405 automated plate washer (BioTek), and counted on a TopCount Scintillation Plate Reader (Packard). IC50 values are determined via non-linear regression fitting of enzyme inhibition data and corresponding Ki values are generated assuming ATP-competitive (equilibrium) inhibition and using the experimentally determined apparent ATP Km of 0.7 μM (as determined using the above assay condition, but varying ATP). Table 1 depicts enzyme inhibition data (Ki) for exemplary compounds. In Table 1, “A” represents a Ki of less than 10 nM, “B” represents a Ki of between 10 nM and 100 nM, and “C” represents a Ki of greater than 100 nM.
Table 2 depicts enzyme inhibition data (Ki) for examples 27-43 using the same assay as example 26. In Table 2, “A” represents a Ki of less than 10 nM, “B” represents a Ki of between 10 nM and 100 nM, and “C” represents a Ki of greater than 100 nM.

T1 sequence (O00311 whole entry): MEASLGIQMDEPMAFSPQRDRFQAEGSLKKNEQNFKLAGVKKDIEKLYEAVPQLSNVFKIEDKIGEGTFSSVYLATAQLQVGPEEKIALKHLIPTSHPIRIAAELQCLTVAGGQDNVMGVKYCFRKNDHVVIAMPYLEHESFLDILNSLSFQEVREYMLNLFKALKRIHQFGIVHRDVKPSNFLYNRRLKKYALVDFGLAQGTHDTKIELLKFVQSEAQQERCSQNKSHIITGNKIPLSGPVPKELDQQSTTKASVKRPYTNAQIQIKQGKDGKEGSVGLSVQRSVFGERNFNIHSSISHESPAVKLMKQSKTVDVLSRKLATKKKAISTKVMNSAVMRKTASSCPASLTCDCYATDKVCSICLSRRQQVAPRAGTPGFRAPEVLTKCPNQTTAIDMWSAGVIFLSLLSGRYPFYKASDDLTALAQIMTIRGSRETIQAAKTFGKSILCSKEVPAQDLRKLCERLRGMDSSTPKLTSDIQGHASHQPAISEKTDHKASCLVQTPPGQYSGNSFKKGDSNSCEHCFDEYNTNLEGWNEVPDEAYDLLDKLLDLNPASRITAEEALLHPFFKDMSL
T1 sequence (Q9UBU7 whole entry partner): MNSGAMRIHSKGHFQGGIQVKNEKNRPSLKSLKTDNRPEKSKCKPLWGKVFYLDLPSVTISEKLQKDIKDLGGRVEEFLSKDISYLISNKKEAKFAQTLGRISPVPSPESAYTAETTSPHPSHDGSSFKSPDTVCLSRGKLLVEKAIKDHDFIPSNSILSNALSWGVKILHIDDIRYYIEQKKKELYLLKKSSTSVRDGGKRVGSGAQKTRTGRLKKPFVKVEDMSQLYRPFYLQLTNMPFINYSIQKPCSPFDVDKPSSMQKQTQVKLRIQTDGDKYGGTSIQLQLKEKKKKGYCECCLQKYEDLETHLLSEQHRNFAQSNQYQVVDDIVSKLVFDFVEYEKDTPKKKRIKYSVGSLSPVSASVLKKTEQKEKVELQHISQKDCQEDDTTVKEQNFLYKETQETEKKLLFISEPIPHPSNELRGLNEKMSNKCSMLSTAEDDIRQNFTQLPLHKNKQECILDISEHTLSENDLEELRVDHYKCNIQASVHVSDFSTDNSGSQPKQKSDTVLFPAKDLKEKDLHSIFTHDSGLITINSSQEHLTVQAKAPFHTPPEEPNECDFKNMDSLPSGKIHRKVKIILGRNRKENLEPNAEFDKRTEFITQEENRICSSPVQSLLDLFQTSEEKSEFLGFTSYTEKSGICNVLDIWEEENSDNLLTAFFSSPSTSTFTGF

Row | Ki | Structure (SMILES)
1 | < 10 nM | O=C(N[C@H]1CC[C@H](Nc2cc(-c3c[nH]c4nccnc34)cc(Cl)n2)CC1)[C@@H]1CCN1 [Example 30, (2S)—N-(trans-4-{[6-chloro-4-(5H-pyrrolo[2,3-b]pyrazin-7-yl)pyridin-2-yl]amino}cyclohexyl)azetidine-2-carboxamide]
2 | < 10 nM | O=C1CC(C(=O)N[C@H]2CC[C@H](Nc3cc(-c4c[nH]c5nccnc45)cc(Cl)n3)CC2)CC(=O)N1 [Example 31, N-(trans-4-{[6-chloro-4-(5H-pyrrolo[2,3-b]pyrazin-7-yl)pyridin-2-yl]amino}cyclohexyl)-2,6-dioxopiperidine-4-carboxamide]
3 | < 10 nM | O[C@H]1CC[C@H](Nc2cc(-c3c[nH]c4ncc(Cl)nc34)cc(Cl)n2)CC1 [Example 33, trans 4-{[6-chloro-4-(2-chloro-5H-pyrrolo[2,3-b]pyrazin-7-yl)pyridin-2-yl]amino}cyclohexanol]
4 | < 10 nM | O[C@H]1CC[C@H](Nc2cc(-c3c[nH]c4ncc(Br)nc34)cc(Cl)n2)CC1 [Example 34, trans 4-{[4-(2-bromo-5H-pyrrolo[2,3-b]pyrazin-7-yl)-6-chloropyridin-2-yl]amino}cyclohexanol]
5 | < 10 nM | Clc1cc(-c2c[nH]c3ncc(Cl)nc23)cc(NC2CCCCC2)n1 [Example 35, 6-chloro-4-(2-chloro-5H-pyrrolo[2,3-b]pyrazin-7-yl)-N-cyclohexylpyridin-2-amine]
6 | < 10 nM | O=C(O)c1cnc2[nH]cc(-c3cc(Cl)nc(NC4CCCCC4)c3)c2n1 [Example 36, 7-[2-chloro-6-(cyclohexylamino)pyridin-4-yl]-5H-pyrrolo[2,3-b]pyrazine-2-carboxylic acid]
7 | < 10 nM | N#Cc1cnc2[nH]cc(-c3cc(Cl)nc(NC4CCCCC4)c3)c2n1 [Example 37, 7-[2-chloro-6-(cyclohexylamino)pyridin-4-yl]-5H-pyrrolo[2,3-b]pyrazine-2-carbonitrile]
8 | 10 to 100 nM | Clc1cc(-c2c[nH]c3ncc(-c4ccccc4)nc23)cc(NC2CCCCC2)n1 [Example 38, 6-chloro-N-cyclohexyl-4-(2-phenyl-5H-pyrrolo[2,3-b]pyrazin-7-yl)pyridin-2-amine]
9 | 10 to 100 nM | Clc1cc(-c2c[nH]c3ncc(Nc4ccccc4)nc23)cc(NC2CCCCC2)n1 [Example 39, 7-[2-chloro-6-(cyclohexylamino)pyridin-4-yl]-N-phenyl-5H-pyrrolo[2,3-b]pyrazin-2-amine]
10 | 10 to 100 nM | Clc1cc(-c2c[nH]c3ncc(NCCCc4ccccc4)nc23)cc(NC2CCCCC2)n1 [Example 40, 7-[2-chloro-6-(cyclohexylamino)pyridin-4-yl]-N-(3-phenylpropyl)-5H-pyrrolo[2,3-b]pyrazin-2-amine]
11 | < 10 nM | Clc1cc(-c2c[nH]c3ncc(-c4cnccn4)nc23)cc(NC2CCCCC2)n1 [Example 41, 6-chloro-N-cyclohexyl-4-[2-(pyrazin-2-yl)-5H-pyrrolo[2,3-b]pyrazin-7-yl]pyridin-2-amine]
12 | < 10 nM | COc1cc(N2CCC(N3CCN(C)CC3)CC2)ccc1Nc1cnc2[nH]cc(-c3cc(Cl)nc(NC4CCCCC4)c3)c2n1 [Example 42, 7-[2-chloro-6-(cyclohexylamino)pyridin-4-yl]-N-{2-methoxy-4-[4-(4-methylpiperazin-1-yl)piperidin-1-yl]phenyl}-5H-pyrrolo[2,3-b]pyrazin-2-amine]
13 | < 10 nM | Clc1cc(-c2c[nH]c3ncc(/C=C/c4ccncc4)nc23)cc(NC2CCCCC2)n1 [Example 43, 6-chloro-N-cyclohexyl-4-{2-[(E)-2-(pyridin-4-yl)ethenyl]-5H-pyrrolo[2,3-b]pyrazin-7-yl}pyridin-2-amine]
